Source: the supplement of paper PMC10331698
± gives the standard deviation of the averaged measurements.

Legend:
Test in all cases: level (log10 ratio to DMSO vehicle control); higher = higher biomarker level / cell amount than vehicle control
Conditions in all cases: in DMSO
[1] = compound: O=S(=O)(O)C(F)(F)C(F)(F)C(F)(F)C(F)(F)C(F)(F)C(F)(F)C(F)(F)C(F)(F)C(F)(F)C(F)(F)F [Sodium perfluorodecanesulfonate]
Experimental: (§1)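 BioMAP Diversity Plus panel of 12 human primary cell co-culture systems (3C, 4H, LPS, SAg, BT, BF4T, BE3C, CASM3C, HDF3CGF, KF3CT, MyoF, Mphg). Compounds were added 1 h before stimulation and left for 24 h (MyoF 48 h; BT 72 h for soluble read-outs or 6 d for IgG). Biomarkers were read by ELISA, cytotoxicity by SRB, PBMC viability and proliferation by Alamar Blue. Each well value was divided by the mean of 8 DMSO control wells on the same plate and log10 transformed; duplicate blinded samples were tested at 4 concentrations.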

[2] = compound: O=S(=O)(O)CCC(F)(F)C(F)(F)C(F)(F)C(F)(F)C(F)(F)C(F)(F)F [6:2 Fluorotelomer sulfonic acid]
Experimental: as §1

[3] = compound: NS(=O)(=O)C(F)(F)C(F)(F)C(F)(F)C(F)(F)C(F)(F)C(F)(F)F [Perfluorohexanesulfonamide]
Experimental: as §1

Nonafluoropentanamide = compound: NC(=O)C(F)(F)C(F)(F)C(F)(F)C(F)(F)F [Nonafluoropentanamide]
Experimental: as §1

Row | Test System | level (log10) ([1]; 1500 nM) | level (log10) ([1]; 4400 nM) | level (log10) ([1]; 13000 nM) | level (log10) ([1]; 40000 nM) | level (log10) ([2]; 6700 nM) | level (log10) ([2]; 20000 nM) | level (log10) ([2]; 60000 nM) | level (log10) ([3]; 6700 nM) | level (log10) ([3]; 20000 nM) | level (log10) ([3]; 60000 nM) | level (log10) (Nonafluoropentanamide; 6700 nM) | level (log10) (Nonafluoropentanamide; 20000 nM) | level (log10) (Nonafluoropentanamide; 60000 nM)
1 | BE3C:CXCL8/IL-8 | 0.0135 ± 0.0035 | 0.0345 ± 0.0021 | 0.083 ± 0.021 | 0.0225 ± 0.037 | 0.021 ± 0.031 | -0.001 ± 0.021 | 0 ± 0.021 | -0.0795 ± 0.044 | -0.161 ± 0.0078 | -0.3 ± 0.039 | 0.0235 ± 0.019 | 0.004 ± 0.05 | 0.0245 ± 0.066
2 | BF4T:CD90 | -0.0085 ± 0.012 | -0.0055 ± 0.005 | -0.0065 ± 0.0035 | 0.002 ± 0.0057 | -0.029 ± 0.017 | -0.028 ± 0.0085 | -0.031 ± 0.0042 | -0.0055 ± 0.00071 | -0.0085 ± 0.0078 | -0.035 ± 0.0099 | -0.0145 ± 0.015 | -0.0075 ± 0.0021 | -0.013 ± 0.0042
3 | BT:sIL-17F | -0.025 ± 0.083 | 0.0315 ± 0.1 | 0.0615 ± 0.19 | 0.025 ± 0.086 | 0.0005 ± 0.064 | 0.0725 ± 0.012 | 0.0155 ± 0.011 | -0.0125 ± 0.11 | 0.054 ± 0.041 | -0.13 ± 0.027 | -0.0305 ± 0.12 | -0.0695 ± 0.14 | -0.101 ± 0.15
4 | LPS:sTNF-alpha | -0.0135 ± 0.0078 | -0.0375 ± 0.059 | -0.162 ± 0.0085 | -0.42 ± 0.052 | -0.002 ± 0.0042 | 0 ± 0.0057 | 0.0015 ± 0.0092 | -0.0515 ± 0.022 | -0.02 ± 0.041 | -0.0325 ± 0.079 | 0.018 ± 0.037 | 0.0125 ± 0.0092 | -0.043 ± 0.013
5 | BF4T:CCL26/Eotaxin-3 | -0.0815 ± 0.026 | -0.131 ± 0.0078 | -0.23 ± 0.066 | -0.298 ± 0.013 | 0.001 ± 0.018 | -0.0535 ± 0.011 | -0.08 ± 0.078 | -0.017 ± 0.018 | -0.064 ± 0.0028 | -0.151 ± 0.012 | -0.006 ± 0.0071 | -0.055 ± 0.0042 | -0.0525 ± 0.0092
6 | BE3C:CXCL10/IP-10 | -0.0045 ± 0.029 | -0.0165 ± 0.0021 | -0.076 ± 0.0042 | -0.201 ± 0.013 | 0.0015 ± 0.0021 | -0.0095 ± 0.0078 | -0.0125 ± 0.018 | -0.016 ± 0.04 | -0.086 ± 0.042 | -0.235 ± 0.047 | 0.0145 ± 0.021 | -0.005 ± 0.038 | -0.0095 ± 0.015
7 | SAg:CD69 | 0.007 ± 0.011 | -0.0425 ± 0.015 | -0.0215 ± 0.00071 | -0.111 ± 0.0042 | -0.0245 ± 0.059 | -0.04 ± 0.024 | -0.04 ± 0.0057 | -0.028 ± 0.017 | -0.0725 ± 0.019 | -0.217 ± 0.02 | -0.0095 ± 0.013 | -0.025 ± 0.0085 | -0.008 ± 0.0042
8 | BF4T:CD54/ICAM-1 | -0.019 ± 0.0071 | -0.031 ± 0.016 | -0.014 ± 0.014 | -0.0105 ± 0.025 | -0.0115 ± 0.00071 | -0.015 ± 0.021 | -0.0095 ± 0.018 | -0.015 ± 0.0014 | -0.0375 ± 0.0064 | -0.0645 ± 0.0078 | -0.003 ± 0.0028 | -0.0005 ± 0.00071 | 0.007 ± 0.0099
9 | BF4T:CD106/VCAM-1 | -0.0095 ± 0.021 | -0.0125 ± 0.069 | -0.096 ± 0.035 | -0.106 ± 0.028 | -0.0125 ± 0.04 | -0.0315 ± 0.0035 | -0.022 ± 0.057 | -0.0295 ± 0.022 | -0.104 ± 0.0099 | -0.198 ± 0.013 | -0.015 ± 0.059 | -0.0485 ± 0.03 | -0.014 ± 0.017
10 | LPS:SRB | 0.0025 ± 0.0021 | -0.001 ± 0.0057 | -0.0105 ± 0.00071 | -0.02 ± 0.017 | -0.0055 ± 0.00071 | -0.0005 ± 0.0064 | -0.001 ± 0.023 | -0.012 ± 0.0071 | -0.017 ± 0.0057 | -0.0975 ± 0.029 | 0.0015 ± 0.011 | -0.0065 ± 0.005 | -0.003 ± 0.0042
11 | LPS:CD69 | -0.028 ± 0.021 | -0.045 ± 0.011 | -0.0585 ± 0.00071 | -0.16 ± 0.054 | -0.0315 ± 0.037 | -0.033 ± 0.055 | -0.111 ± 0.057 | -0.009 ± 0.013 | -0.061 ± 0.016 | -0.169 ± 0.005 | -0.0545 ± 0.046 | -0.042 ± 0.05 | -0.001 ± 0.025
12 | BF4T:IL-1alpha | 0.037 ± 0.034 | -0.0165 ± 0.033 | 0.0095 ± 0.011 | -0.0155 ± 0.0064 | 0.006 ± 0.0085 | 0.0005 ± 0.0092 | 0.023 ± 0.018 | -0.006 ± 0.0042 | -0.008 ± 0.017 | -0.0675 ± 0.016 | -0.017 ± 0.0042 | -0.0035 ± 0.028 | -0.003 ± 0.0014
13 | BF4T:Keratin 8/18 | 0.02 ± 0.0071 | 0.005 ± 0.023 | -0.0175 ± 0.015 | -0.044 ± 0.023 | 0.0075 ± 0.019 | -0.0065 ± 0.016 | 0.0045 ± 0.011 | -0.01 ± 0.033 | -0.019 ± 0.017 | -0.065 ± 0.067 | -0.008 ± 0.013 | -0.0145 ± 0.015 | -0.0305 ± 0.042
14 | BF4T:SRB | 0.004 ± 0.0071 | -0.0055 ± 0.005 | 0 ± 0.0057 | 0.006 ± 0.016 | 0.0005 ± 0.00071 | -0.003 ± 0.0042 | -0.003 ± 0.0057 | -0.005 ± 0.0042 | -0.012 ± 0.0042 | -0.0345 ± 0.005 | -0.018 ± 0.0042 | -0.017 ± 0.016 | -0.019 ± 0.0028
15 | BT:sIL-2 | 0.0125 ± 0.09 | 0.014 ± 0.051 | 0.0265 ± 0.1 | 0.12 ± 0.064 | -0.0555 ± 0.011 | 0.0325 ± 0.018 | -0.01 ± 0.031 | -0.018 ± 0.11 | -0.0415 ± 0.015 | 0.0705 ± 0.00071 | 0.0345 ± 0.053 | 0.002 ± 0.033 | -0.0105 ± 0.011
16 | BF4T:CXCL8/IL-8 | 0.0305 ± 0.069 | 0.034 ± 0.0099 | 0.0995 ± 0.021 | 0.136 ± 0.0057 | 0.069 ± 0.058 | 0.0625 ± 0.044 | 0.0805 ± 0.057 | -0.031 ± 0.052 | -0.051 ± 0.034 | -0.073 ± 0.02 | 0.055 ± 0.021 | 0.028 ± 0.057 | 0.0235 ± 0.088
17 | BE3C:CD87/uPAR | 0.029 ± 0.011 | 0.066 ± 0.02 | 0.005 ± 0.0014 | -0.179 ± 0.011 | 0.003 ± 0.0014 | -0.0065 ± 0.011 | 0.0235 ± 0.018 | 0.0005 ± 0.0035 | -0.0055 ± 0.018 | -0.13 ± 0.018 | 0.012 | 0.0185 ± 0.015 | 0.0115 ± 0.018
18 | SAg:SRB | -0.002 ± 0.0057 | -0.0015 ± 0.00071 | -0.016 ± 0.0014 | -0.078 ± 0.0042 | -0.012 ± 0.0057 | -0.0045 ± 0.0021 | -0.0045 ± 0.021 | -0.003 ± 0.0028 | -0.001 ± 0.0028 | -0.094 ± 0.021 | -0.0025 ± 0.00071 | -0.0055 ± 0.00071 | -0.0045 ± 0.0078
19 | LPS:CXCL8/IL-8 | -0.022 ± 0.025 | 0.032 ± 0.018 | 0.0335 ± 0.054 | -0.176 ± 0.016 | 0.045 ± 0.013 | 0.072 ± 0.064 | 0.192 ± 0.1 | -0.005 ± 0.0071 | -0.0015 ± 0.013 | -0.034 ± 0.0071 | -0.034 ± 0.028 | -0.002 ± 0.034 | 0.032 ± 0.052
20 | SAg:Proliferation | -0.0065 ± 0.0035 | -0.006 ± 0.0042 | -0.024 ± 0.034 | -0.023 ± 0.035 | -0.019 ± 0.027 | -0.0255 ± 0.023 | -0.0225 ± 0.0035 | 0.0045 ± 0.0035 | -0.016 ± 0.013 | -0.0695 ± 0.019 | -0.01 ± 0.052 | -0.05 ± 0.034 | -0.0945 ± 0.1
